The results in this text go back to US9290457B2, “Substituted dihydropyrimidinones and their use as inhibitors of neutrophil elastase activity” (Boehringer Ingelheim International GmbH, priority 2014, dated 2016).

Some results are limits rather than exact numbers.

A short description of series [1]: Drug transport across human Caco-2 cells. It counts as in vitro ADME. The following applies: human, Caco-2, pH 7.2, 37° C.; for Papp A→B at 10 μM: apical-to-basal, read-out: PEAB; for Papp B→A at 10 μM: basal-to-apical, read-out: PEBA. The source says: (§1) Assay for Determination of Drug Transport Across Human Caco-2 Cells
(§2) The assay provides information on the potential of a compound to pass the cell membrane, on the extent of oral absorption as well as on whether the compound is actively transported by uptake and/or efflux transporters. For the measurement of permeability across polarized, confluent human cancer colon carcinoma cells 2 (Caco-2) cell monolayers grown on permeable filter supports are used as the in vitro absorption model.
(§3) Apparent permeability coefficients (PE) of the compounds across the Caco-2 monolayers are measured (pH 7.2, 37° C.) in apical-to-basal (AB) (absorptive) and basal-to-apical (BA) (secretory) transport direction. AB permeability (PEAB) represents drug absorption from the intestine into the blood and BA permeability (PEBA) drug secretion from the blood back into the intestine via both passive permeability as well as active transport mechanisms mediated by efflux and uptake transporters that are expressed on the Caco-2 cells. The compounds are assigned to permeability/absorption classes by comparison of the AB permeabilities with the AB permeabilities of reference compounds with known in vitro permeability and oral absorption in the human. Identical or similar permeabilities in both transport directions indicate passive permeation, vectorial permeability points to additional active transport mechanisms. […] Active transport is concentration-dependently saturable.
(§4) Caco-2 cells (1-2*10^5 cells/cm^2 area) are seeded on filter inserts (Costar transwell polycarbonate or PET filters, 0.4 μm pore size) and cultured (DMEM) for 10 to 25 days. Compounds are dissolved in appropriate solvent (like DMSO, 1-20 mM stock solutions). Stock solutions are diluted with HTP-4 buffer (128.13 mM NaCl, 5.36 mM KCl, 1 mM MgSO4, 1.8 mM CaCl2, 4.17 mM NaHCO3, 1.19 mM Na2HPO4x7H2O, 0.41 mM NaH2PO4xH2O, 15 mM HEPES, 20 mM glucose, pH 7.2) to prepare the transport solutions (typically 10 μM compound, final DMSO<=0.5%). The transport solution (TL) is applied to the apical or basolateral donor side for measuring A-B or B-A permeability (3 filter replicates), respectively. The receiver side contains HTP-4 buffer supplemented with 2% BSA. Samples are collected at the start and end of experiment from the donor and at various time intervals for up to 2 hours also from the receiver side for concentration measurement by LC-MS/MS or scintillation counting. Sampled receiver volumes are replaced with fresh receiver solution.
(§5) The apparent permeability coefficients (PEAB and PEBA) of selected compounds in the Caco-2 drug transport assay described above are listed in Table 5.

In series [2] the target is neutrophil elastase (Homo sapiens (Human), UniProt P08246). The series can be described thus: Neutrophil elastase inhibitory activity in human plasma. It counts as biochemical. The conditions noted are these: zymosan-stimulated human plasma, substrate MeOSuc-Ala-Ala-Pro-Val-AMC. On the procedure:
Assay for the Determination of Neutrophil Elastase Inhibitory Activity in Human Plasma
Citrated blood from human healthy donors is mixed with zymosan suspension and incubated at room temperature. This leads to the stimulation of neutrophils and the release of neutrophil elastase into the plasma. The stimulated blood is centrifuged to generate the neutrophil elastase enriched plasma.
Preparation of Zymosan Working Solution:
• A single 45 ml blood sample is taken into a 50 ml tube containing citrate (3.13%, 5 mL) and the tube is gently inverted 4 times. • Immediately after blood sampling, zymosan working solution (5 mL) is added. • After the addition of zymosan working solution, the tubes are capped, mixed gently and incubated at 22° C. for 15 min on a shaker at 20 rpm. • Make 10 ml aliquots after the incubation time. • Centrifuge the 15 ml tubes at 800 g for 15 min at 4° C. in a Jouan centrifuge. • Harvest the plasma and make 1-5 ml aliquots. • Store the plasma at −80° C.
Various concentrations of the neutrophil elastase inhibitor are incubated with plasma. Subsequently, the enzyme activity is measured using the fluorogenic substrate MeOSuc-Ala-Ala-Pro-Val-AMC (Bachem Cat. No. I-1270, substrate concentration: 250 μM, pH 7.5, 25 mM TRIS buffer, 250 mM NaCl) in analogous fashion as described for the human neutrophil assay. A dose response curve is generated to calculate the EC50 of the inhibitor. The analysis of the data is performed by the calculation of the percentage of fluorescence in the presence of the test compound compared to the fluorescence of the vehicle control after subtracting the background fluorescence: An inhibitor of the neutrophil elastase enzyme will give values between 100% control (no inhibition) and 0% control (complete inhibition).

Series [3] relates to Caco-2 cells. Put plainly: Drug transport across human Caco-2 cells. It counts as in vitro ADME. The following applies: pH 7.2, 37° C.; for PEAB: apical-to-basal; for PEBA: basal-to-apical.
Description: as §1, §2, §3, §4, §5
A general note: Caco-2 monolayers are a common model of the intestinal barrier.

The target in series [4] is hERG (human ether-a-go-go-related gene) potassium channel (Homo sapiens (Human), UniProt Q12809). The series can be described thus: hERG inhibition patch clamp assay. Format: cell-based. The source says: Calculations: Fold induction=(Enzyme mRNA Compound)/(Enzyme mRNA Solvent Control) Inducer Potency=(Fold Compound)/(Fold Rifampicin)*100 Assay for Determination of hERG Inhibition
The inhibition of the hERG (human ether-a-go-go-related gene) potassium channel can be determined as described in Rast, G., & Guth, B. D., Journal of Pharmacological and Toxicological Methods (2014), http://dx.doi.org/10.1016/j.vasen.2014.08.001.

Series [5] concerns the target cytochrome P450 2C19 (Homo sapiens (Human), UniProt P33261). Put plainly: Cytochrome P450 2C19 inhibition. It counts as in vitro ADME. The following applies: human liver microsomes, Mephenytoin hydroxylation; read-out: IC50 CYP2C19 inhibition. On the procedure:
Assay for Determination of Cytochrome P450 2C19 Inhibition
All assays are carried out on a robotic system in 96 well plates. The final incubation volume contains TRIS buffer (0.1 M), MgCl2 (5 mM), human liver microsomes (0.5 mg/ml), (S)-Mephenytoin (70 μM) and the test compound at five different concentrations or no compound (high control) in duplicate (e.g. highest concentration 10-50 μM with subsequent serial 1:4 dilutions). Following a short preincubation period, reactions are started with the cofactor (NADPH, 1 mM) and stopped by cooling the incubation down to 8° C. and subsequently by addition of one volume of acetonitrile. An internal standard solution—usually the stable isotope of the formed metabolite—is added after quenching of incubations. Peak area analyte (=metabolite formed) and internal standard is determined by LC-MS/MS. The resulting peak area ratio analyte to internal standard in these incubations is compared to a control activity containing no test compound.
If the inhibition of the reaction is already >50% at the lowest concentration of the test compound, the IC50 is assigned “<lowest concentration tested” (usually <0.4 μM). If the inhibition of the reaction is still <50% at the highest concentration of the test compound, the IC50 is assigned “>highest concentration tested” (usually >50 μM).

Chain of neutrophil elastase (P08246 30-267): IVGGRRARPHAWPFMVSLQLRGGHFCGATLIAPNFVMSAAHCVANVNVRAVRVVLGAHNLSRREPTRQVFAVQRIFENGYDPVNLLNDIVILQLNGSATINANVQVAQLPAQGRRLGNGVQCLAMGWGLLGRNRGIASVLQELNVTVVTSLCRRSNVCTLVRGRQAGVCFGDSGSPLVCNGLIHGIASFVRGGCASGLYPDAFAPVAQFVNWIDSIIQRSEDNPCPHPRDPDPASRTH
Chain of hERG (human ether-a-go-go-related gene) potassium channel (Q12809 whole entry): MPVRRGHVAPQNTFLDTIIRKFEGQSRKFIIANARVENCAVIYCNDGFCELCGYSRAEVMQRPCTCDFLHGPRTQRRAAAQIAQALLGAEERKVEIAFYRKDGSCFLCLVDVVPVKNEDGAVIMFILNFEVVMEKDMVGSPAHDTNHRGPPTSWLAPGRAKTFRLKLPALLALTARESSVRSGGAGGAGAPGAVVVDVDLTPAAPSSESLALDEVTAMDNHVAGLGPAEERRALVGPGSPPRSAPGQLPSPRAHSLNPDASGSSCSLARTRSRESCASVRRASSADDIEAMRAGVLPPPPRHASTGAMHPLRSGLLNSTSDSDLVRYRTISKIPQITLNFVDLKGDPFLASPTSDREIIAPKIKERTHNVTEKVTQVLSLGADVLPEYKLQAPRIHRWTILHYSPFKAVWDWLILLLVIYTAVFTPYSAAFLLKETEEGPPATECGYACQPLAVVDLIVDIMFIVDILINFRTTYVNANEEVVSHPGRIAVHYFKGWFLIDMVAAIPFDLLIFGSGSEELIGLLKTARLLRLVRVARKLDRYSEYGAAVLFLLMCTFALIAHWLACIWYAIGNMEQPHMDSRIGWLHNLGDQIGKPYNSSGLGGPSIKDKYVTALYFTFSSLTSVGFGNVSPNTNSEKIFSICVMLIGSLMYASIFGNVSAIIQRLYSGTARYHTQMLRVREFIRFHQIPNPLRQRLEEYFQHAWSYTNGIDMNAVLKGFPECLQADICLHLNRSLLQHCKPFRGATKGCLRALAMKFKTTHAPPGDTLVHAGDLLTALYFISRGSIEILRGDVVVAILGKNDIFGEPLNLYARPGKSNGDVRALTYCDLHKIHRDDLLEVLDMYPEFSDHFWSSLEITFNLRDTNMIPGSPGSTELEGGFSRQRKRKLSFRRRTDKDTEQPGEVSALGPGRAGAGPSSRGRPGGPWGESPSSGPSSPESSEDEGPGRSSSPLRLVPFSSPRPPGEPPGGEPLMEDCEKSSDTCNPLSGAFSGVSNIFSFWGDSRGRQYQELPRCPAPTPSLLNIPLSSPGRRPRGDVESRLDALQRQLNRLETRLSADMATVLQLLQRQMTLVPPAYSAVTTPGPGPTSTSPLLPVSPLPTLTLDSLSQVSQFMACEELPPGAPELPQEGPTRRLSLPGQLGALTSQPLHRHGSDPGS
Chain of cytochrome P450 2C19 (P33261 whole entry): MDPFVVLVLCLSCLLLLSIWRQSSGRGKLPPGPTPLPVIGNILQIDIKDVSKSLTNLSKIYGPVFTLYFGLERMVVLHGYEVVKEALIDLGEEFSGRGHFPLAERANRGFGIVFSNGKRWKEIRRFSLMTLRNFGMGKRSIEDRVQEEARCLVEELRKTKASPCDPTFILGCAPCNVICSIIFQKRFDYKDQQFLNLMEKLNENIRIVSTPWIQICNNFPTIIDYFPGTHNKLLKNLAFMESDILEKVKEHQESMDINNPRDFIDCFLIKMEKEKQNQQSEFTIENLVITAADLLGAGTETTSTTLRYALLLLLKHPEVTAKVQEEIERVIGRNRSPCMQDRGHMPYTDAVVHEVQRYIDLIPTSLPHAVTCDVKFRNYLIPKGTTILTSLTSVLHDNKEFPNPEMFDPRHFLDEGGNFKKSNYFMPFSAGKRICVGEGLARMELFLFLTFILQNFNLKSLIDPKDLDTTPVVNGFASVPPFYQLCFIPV

The term EC50 denotes the concentration giving half of the maximal effect. Higher therefore signals lower potency in that assay. Turning to `CC(=O)C1=C(C)N(c2cccc(C(F)(F)F)c2)C(=O)N(C)C1c1ccc(C#N)cc1C(=O)NCC(C)(C)O` (centres unmarked) [Example 1.22], in series [1], the Papp A→B at 10 μM was 7.8 ×10⁻⁶ cm/s and the Papp B→A at 10 μM amounted to 81 ×10⁻⁶ cm/s. Also, the EC50 in series [2] is 2 nM.
For `CC(=O)C1=C(C)N(c2cccc(C(F)(F)F)c2)C(=O)N(C)C1c1ccc(C#N)cc1C(=O)N1CCn2ncnc2C1` (centres unmarked) [Example 1.73], in series [1], the Papp A→B at 10 μM was determined as 5.1 ×10⁻⁶ cm/s and the Papp B→A at 10 μM was found to be 92 ×10⁻⁶ cm/s. The EC50 in series [2] worked out at 2 nM.
In series [3], `CC(=O)C1=C(C)N(c2cccc(C(F)(F)F)c2)C(=O)N(C)C1c1ccc(C#N)cc1C(=O)NCCF` (centres unmarked) [Example 1.10] yielded a PEAB of 39 ×10⁻⁶ cm/s and a PEBA of 78 ×10⁻⁶ cm/s. Moreover, the EC50 in series [2] was found to be 1 nM.
Broadly, the IC50 is the concentration needed to halve the response being measured. In the case of `CC(=O)C1=C(C)N(c2cccc(C(F)(F)F)c2)C(=O)N(C)[C@@H]1c1ccc(C#N)cc1-c1ccc(=O)n(C)c1` [Example 16, 4-[(R)-5-Acetyl-3,6-dimethyl-2-oxo-1-(3-trifluoromethyl-phenyl)-1,2,3,4-tetrahydro-pyrimidin-4-yl]-3-(1-methyl-6-oxo-1,6-dihydro-pyridin-3-yl)-benzonitrile], the IC50 in series [4] was greater than 30000 nM; in series [5], greater than 50000 nM. Besides, the Papp A→B at 10 μM in series [1] was found to be 12 ×10⁻⁶ cm/s. The Papp B→A at 10 μM in series [1] was 120 ×10⁻⁶ cm/s. Moreover, the EC50 in series [2] came to 1 nM.
In series [3], `CC(=O)C1=C(C)N(c2cccc(C(F)(F)F)c2)C(=O)N(C)C1c1ccc(C#N)cc1C(=O)NC1CC1` (centres unmarked) [Example 1.8] came in with a PEAB of 44 ×10⁻⁶ cm/s and a PEBA of 74 ×10⁻⁶ cm/s. For the same compound, in series [2], the EC50 came to 1 nM.
With `CNC(=O)c1cc(C#N)ccc1[C@@H]1C(C(C)=O)=C(C)N(c2cccc(C(F)(F)F)c2)C(=O)N1C` [Example 13.1], the IC50 in series [4] was greater than 30000 nM. Besides, the hERG inhibition entry in series [4] (@ 10 μM) is listed as “(7% @ 10 μM)”. In series [3], this compound registered a PEAB of 33 ×10⁻⁶ cm/s and a PEBA of 80 ×10⁻⁶ cm/s. In series [2], this compound came in with an EC50 of 1 nM. The IC50 in series [5] was greater than 50000 nM.
In series [3], `CC(=O)C1=C(C)N(c2cccc(C(F)(F)F)c2)C(=O)N(C)C1c1ccc(C#N)cc1C(=O)NCC#N` (centres unmarked) [Example 1.6] came in with a PEAB of 10 ×10⁻⁶ cm/s and a PEBA of 81 ×10⁻⁶ cm/s. In series [2], the EC50 came to 1 nM.
Consider `CC(=O)C1=C(C)N(c2cccc(C(F)(F)F)c2)C(=O)N(C)[C@@H]1c1ccc(C#N)cc1-c1ccn(C)c(=O)c1` [Example 17, 4-[(R)-5-Acetyl-3,6-dimethyl-2-oxo-1-(3-trifluoromethyl-phenyl)-1,2,3,4-tetrahydro-pyrimidin-4-yl]-3-(1-methyl-2-oxo-1,2-dihydro-pyridin-4-yl)-benzonitrile], for which, in series [1], the Papp A→B at 10 μM turned out to be 11 ×10⁻⁶ cm/s and the Papp B→A at 10 μM was determined as 114 ×10⁻⁶ cm/s. In series [2], this compound showed an EC50 of 5 nM.
